Source: patent US20250134952A1, “METHODS FOR IMPROVING THE EFFICACY OF HDAC INHIBITOR THERAPY AND PREDICTING THE RESPONSE TO TREATMENT WITH HDAC INHIBITOR” (INSTITUT NATIONAL DE LA SANTÉ ET DE LA RECHERCHE MÉDICALE, priority 2021, published 2025)

Legend:
[1] = tested on: MCF7shctrl and MCF7shTau; assay: Cell cycle distribution by FACS (propidium iodide and EdU staining); assay type: cell-based, human; details: 100 nM TSA, 48 h
Experimental: FIG. 1: Tau inhibition increases MCF7 breast cancer cell line sensitivity to TSA. (A) Tau protein expression in MCF7, MCF7shctrl and shTau were quantify by Elisa. (B) Effect of 100 nM TSA (48 h) on cell death in the MCF7shctrl and MCF7shTau subclones. Cell death was determined by staining and flow cytometric analysis as described in the materials and methods. (C) Effect of 100 nM TSA (48 h) on apoptosis in the MCF7shctrl and MCF7shTau subclones. Apoptosis was determined by flow cytometric analysis of the PI-positive and Annexin-V-positive cells as described in the materials and methods. (D) Cell cycle distribution was determined by FACS analysis of combined propidium iodide and EdU staining in MCF7shctrl and MCF7shTau in the absence or presence 100 nM TSA, 48 h. Data are mean±SD **P<0.01***P<0.001. All results are representative of three independent experiments.
SH-SY5Y human neuroblastoma cells expressing Tau4R tagged with the streptavidin-binding peptide (SBP) (referred as SH-SY5Y-(SBP)Tau4R) (Chauderlier et al., 2018), SH-SY5Y-Tet-on-Tau4R, Hela cells, MCF7 and MDA-MB-231 were cultured in Dulbecco's Modified Eagle's Medium with 10% fetal bovine serum, 2 mM L-glutamine and 50 U/ml penicillin/streptomycin (Gibco) at 37° C. in 5% CO2 humidified air. Transient and stable transfections experiments were performed using the lipofectamine 3000 reagent (Invitrogen). Transient luciferase assays were performed with the dual-luciferase assay system (Promega). For stable clones, luciferase activities were measured using the luciferase assay system (Promega) and normalized against protein concentration. […]
Cell cycle, Cell death and Apoptosis were analyzed with the Click-It Plus EdU Alexa Fluor 647 kit (Thermofisher), Zombie NIR dye (Zombie NIR Fixable Viability Kit—Biolegend) and Annexin V-FITC Apoptosis Detection Kit II (Calbiochem) according to the manufacturer's guideline. Fluorescence was analyzed using a LSR FORTESSA X20 cytometer (Becton Dickinson).

[2] = tested on: GADD45a; assay: GADD45a expression by real-time PCR; assay type: cell-based, human; details: 100 nM TSA, 24 h
Experimental: (A) Representative confocal sections of MCF7shctrl and shTau cells untreated or treated with 100 nM TSA for 24 h. […] (B) Quantification of HP1α clusters per nuclei visualized as described previously and realized on three independent experiments. (C) GADD45a and (D) p21 (CDKN1a) expression in MCF7shctrl and shTau cells untreated or treated with 100 nM TSA for 24 h were analyzed by real-time PCR and normalized to RPLO. Results are expressed, relative to the basal activity set to 1, as the mean±SD of three independent assays. (E) Tau tethering prevents adjacent reporter gene activity induced by TSA. GAL4UAS responsive luciferase reporter Hela stable cell line was transfected with GAL4DBD (GAL4) or GAL4DBD-Tau4R and then, 24 h later, treated with TSA (600 nM) for 24 h. The luciferase activity was determined as described in the Materials and Methods. (F) Ectopic Tau4R expression prevents adjacent reporter gene activity induced by TSA. […] The luciferase activity was determined as described in the Materials and Methods. […]
Total RNA was prepared using RNeasyMinikit (Qiagen). Reverse transcription (RT) was performed using random hexamers as recommended by the manufacturer (Applied Biosystems). cDNAs were analyzed by PCR amplification using the TaqMan PCR master mix (Applied Biosystems) and a mix of RPLO primers and probes. […]

[3] = tested on: HP1β clusters in Hela cells; assay: GFP-HP1β clusters per nuclei, confocal microscopy; assay type: cell-based; details: TSA 300 nM, 24 h, control Hela cells
Experimental: (A) Single confocal sections of Hela cells transfected with […], with or without Tau4R or TauP301L and treated 24 h later with the TSA (300 nM) for 24 h. Tau C-terminus antibodies and GFP fluorescence were used to visualize total Tau protein and HP1β respectively. Representative images are shown. (B) Quantification of HP1β clusters per nuclei visualized as described previously and realized on three independent experiments. Data are mean±SD *P<0.05 ***P<0.001.
MCF7shctrl, MCF7shTau or transfected Hela cells with Tau4R and GFP-HP1α were fixed in 4% paraformaldehyde for 30 min at room temperature. Permeabilization was carried out in 0.2% Triton X-100 in phosphate-buffered saline for 10 min at room temperature. After 1 h saturation in 2% bovine serum albumin, immunostaining was performed using Tau antibody (recognizing the C-terminal domain of Tau). […] Nuclear staining was performed by adding 1/2000 DAPI in phosphate-buffered saline for 10 min. Slides were then analyzed with a Zeiss LSM710 confocal laser scanning microscope (60× magnification). Images were collected in the Z direction at 0.80 μm intervals and quantifications were realized using the Image J plug-in.
To this end, we first performed GST-pulldown analysis using purified core histones. As shown previously, Tau interacted specifically with core histones as detected by H3, H4, H2A and H2B antibodies (data not shown). […]

**Q.** `CC(/C=C/C(=O)NO)=C\[C@@H](C)C(=O)c1ccc(N(C)C)cc1` [TSA, 2,4-Heptadienamide, 7-[4-(dimethylamino)phenyl]-N-hydroxy-4,6-dimethyl-7-oxo-, (2E,4E,6R)-] was tested. Which “cells in G1” value ([1]; MCF7shTau) did it give?
**A.** 41.4%

**Q.** And the “cells in G1” value ([1]; MCF7shctrl)?
**A.** 39.6%

**Q.** What about the “cells in S-phase” value ([1]; MCF7shctrl) of the same compound?
**A.** 19.2%

**Q.** What about the “GADD45a induction (RT-qPCR)” value ([2]; MCF7shctrl cells, relative to basal) of the same compound?
**A.** 3 fold

**Q.** What about the “GADD45a upregulation by TSA” value ([2]; cells with reduced Tau expression (MCF7shTau) vs MCF7shctrl) of the same compound?
**A.** exacerbated

**Q.** And the “number of HP1 clusters following TSA treatment” value [3]?
**A.** decrease
